Source: the kinase profiling compilation of Christmann-Franck et al. (2016)

Columns and labels:
Test in all cases: Caliper, Mobility shift assay off-chip
ABL2 (human) = ABL2 (human) (UniProt P42684)
AURKA (human) = AURKA (human) (UniProt O14965)
AXL (human) = AXL (human) (UniProt P30530)
CAMK2B (human) = CAMK2B (human) (UniProt Q13554)
CAMK2D (human) = CAMK2D (human) (UniProt Q13557)
CAMK4 (human) = CAMK4 (human) (UniProt Q16566)
CDK2 CCNE1 (human) = CDK2 CCNE1 (human) (UniProt P24864+P24941)
CDK5 CDK5R1 p35 (human) = CDK5 CDK5R1 p35 (human) (UniProt Q00535+Q15078)
CHEK2 (human) = CHEK2 (human) (UniProt O96017)
Chain of CHEK2 (human) (O96017 whole entry, looked up): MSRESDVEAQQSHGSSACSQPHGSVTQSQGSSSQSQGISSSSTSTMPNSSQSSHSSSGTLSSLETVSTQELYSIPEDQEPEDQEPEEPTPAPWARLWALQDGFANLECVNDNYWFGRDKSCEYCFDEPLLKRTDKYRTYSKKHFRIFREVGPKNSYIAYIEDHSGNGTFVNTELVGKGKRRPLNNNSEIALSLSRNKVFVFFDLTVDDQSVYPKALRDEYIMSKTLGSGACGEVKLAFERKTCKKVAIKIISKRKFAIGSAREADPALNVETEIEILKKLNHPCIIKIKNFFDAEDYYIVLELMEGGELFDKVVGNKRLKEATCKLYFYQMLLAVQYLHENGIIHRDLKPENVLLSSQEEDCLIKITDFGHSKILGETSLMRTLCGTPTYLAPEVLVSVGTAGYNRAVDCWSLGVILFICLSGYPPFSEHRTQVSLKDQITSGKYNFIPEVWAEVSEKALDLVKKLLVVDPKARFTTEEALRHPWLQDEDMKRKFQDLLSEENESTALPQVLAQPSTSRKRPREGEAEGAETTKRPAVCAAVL

[1] = test system: CHEK2 (human), O96017 [I157T]
Chain of CHEK2 (human), O96017 [I157T] (O96017 whole entry I157T, looked up): as the sequence (O96017 whole entry, looked up) above, with I157T counted along it

CSNK1D (human) = CSNK1D (human) (UniProt P48730)
DAPK3 (human) = DAPK3 (human) (UniProt O43293)
EEF2K (human) = EEF2K (human) (UniProt O00418)
[2] = test system: EGFR (human), P00533 [T790M]
EPHA3 (human) = EPHA3 (human) (UniProt P29320)
EPHB1 (human) = EPHB1 (human) (UniProt P54762)
EPHB3 (human) = EPHB3 (human) (UniProt P54753)
Chain of EPHB3 (human) (P54753 whole entry, looked up): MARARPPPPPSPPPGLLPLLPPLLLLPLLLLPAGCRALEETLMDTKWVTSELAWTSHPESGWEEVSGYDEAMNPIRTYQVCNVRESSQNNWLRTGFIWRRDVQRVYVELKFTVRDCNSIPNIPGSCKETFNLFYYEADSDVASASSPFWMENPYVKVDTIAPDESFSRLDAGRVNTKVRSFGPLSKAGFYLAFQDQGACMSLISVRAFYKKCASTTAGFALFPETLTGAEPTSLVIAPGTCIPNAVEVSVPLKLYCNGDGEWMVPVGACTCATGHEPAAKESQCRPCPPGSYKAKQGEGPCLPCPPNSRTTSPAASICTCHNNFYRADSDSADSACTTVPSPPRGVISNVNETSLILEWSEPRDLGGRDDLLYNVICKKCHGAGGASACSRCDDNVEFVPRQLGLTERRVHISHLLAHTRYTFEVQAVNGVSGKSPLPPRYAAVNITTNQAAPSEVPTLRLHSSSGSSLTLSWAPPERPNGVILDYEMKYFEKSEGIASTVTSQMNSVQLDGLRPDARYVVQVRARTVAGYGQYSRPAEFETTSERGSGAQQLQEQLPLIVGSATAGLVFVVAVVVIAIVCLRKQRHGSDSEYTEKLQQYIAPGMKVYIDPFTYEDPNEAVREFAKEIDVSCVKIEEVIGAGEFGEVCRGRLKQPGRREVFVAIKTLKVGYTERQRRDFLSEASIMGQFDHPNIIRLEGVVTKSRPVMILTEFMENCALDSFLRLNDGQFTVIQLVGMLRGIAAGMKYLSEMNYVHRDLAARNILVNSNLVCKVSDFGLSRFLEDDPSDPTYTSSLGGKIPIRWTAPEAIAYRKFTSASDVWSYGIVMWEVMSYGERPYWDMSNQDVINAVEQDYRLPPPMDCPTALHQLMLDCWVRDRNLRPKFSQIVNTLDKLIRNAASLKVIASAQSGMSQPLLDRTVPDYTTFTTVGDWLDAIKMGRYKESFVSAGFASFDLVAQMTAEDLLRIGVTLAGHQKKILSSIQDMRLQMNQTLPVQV

ERBB4 (human) = ERBB4 (human) (UniProt Q15303)
FGFR2 (human) = FGFR2 (human) (UniProt P21802)
FYN (human) = FYN (human) (UniProt P06241)
Chain of FYN (human) (P06241 whole entry, looked up): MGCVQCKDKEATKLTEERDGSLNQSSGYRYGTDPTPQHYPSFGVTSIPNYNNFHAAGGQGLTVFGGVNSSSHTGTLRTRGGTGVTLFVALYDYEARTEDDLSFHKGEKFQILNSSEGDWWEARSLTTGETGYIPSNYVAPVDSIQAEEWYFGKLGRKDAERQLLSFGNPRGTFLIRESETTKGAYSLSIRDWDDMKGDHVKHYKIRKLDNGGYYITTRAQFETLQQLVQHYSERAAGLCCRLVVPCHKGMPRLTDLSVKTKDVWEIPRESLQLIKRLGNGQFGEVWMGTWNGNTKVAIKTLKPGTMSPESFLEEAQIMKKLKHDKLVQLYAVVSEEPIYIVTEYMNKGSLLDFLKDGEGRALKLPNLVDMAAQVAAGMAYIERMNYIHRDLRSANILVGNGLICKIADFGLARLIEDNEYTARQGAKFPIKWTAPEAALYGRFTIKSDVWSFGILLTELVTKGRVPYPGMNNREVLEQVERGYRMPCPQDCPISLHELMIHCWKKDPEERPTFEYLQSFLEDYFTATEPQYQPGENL

GRK5 (human) = GRK5 (human) (UniProt P34947)
GRK6 (human) = GRK6 (human) (UniProt P43250)
HIPK2 (human) = HIPK2 (human) (UniProt Q9H2X6)
Chain of HIPK2 (human) (Q9H2X6 whole entry, looked up): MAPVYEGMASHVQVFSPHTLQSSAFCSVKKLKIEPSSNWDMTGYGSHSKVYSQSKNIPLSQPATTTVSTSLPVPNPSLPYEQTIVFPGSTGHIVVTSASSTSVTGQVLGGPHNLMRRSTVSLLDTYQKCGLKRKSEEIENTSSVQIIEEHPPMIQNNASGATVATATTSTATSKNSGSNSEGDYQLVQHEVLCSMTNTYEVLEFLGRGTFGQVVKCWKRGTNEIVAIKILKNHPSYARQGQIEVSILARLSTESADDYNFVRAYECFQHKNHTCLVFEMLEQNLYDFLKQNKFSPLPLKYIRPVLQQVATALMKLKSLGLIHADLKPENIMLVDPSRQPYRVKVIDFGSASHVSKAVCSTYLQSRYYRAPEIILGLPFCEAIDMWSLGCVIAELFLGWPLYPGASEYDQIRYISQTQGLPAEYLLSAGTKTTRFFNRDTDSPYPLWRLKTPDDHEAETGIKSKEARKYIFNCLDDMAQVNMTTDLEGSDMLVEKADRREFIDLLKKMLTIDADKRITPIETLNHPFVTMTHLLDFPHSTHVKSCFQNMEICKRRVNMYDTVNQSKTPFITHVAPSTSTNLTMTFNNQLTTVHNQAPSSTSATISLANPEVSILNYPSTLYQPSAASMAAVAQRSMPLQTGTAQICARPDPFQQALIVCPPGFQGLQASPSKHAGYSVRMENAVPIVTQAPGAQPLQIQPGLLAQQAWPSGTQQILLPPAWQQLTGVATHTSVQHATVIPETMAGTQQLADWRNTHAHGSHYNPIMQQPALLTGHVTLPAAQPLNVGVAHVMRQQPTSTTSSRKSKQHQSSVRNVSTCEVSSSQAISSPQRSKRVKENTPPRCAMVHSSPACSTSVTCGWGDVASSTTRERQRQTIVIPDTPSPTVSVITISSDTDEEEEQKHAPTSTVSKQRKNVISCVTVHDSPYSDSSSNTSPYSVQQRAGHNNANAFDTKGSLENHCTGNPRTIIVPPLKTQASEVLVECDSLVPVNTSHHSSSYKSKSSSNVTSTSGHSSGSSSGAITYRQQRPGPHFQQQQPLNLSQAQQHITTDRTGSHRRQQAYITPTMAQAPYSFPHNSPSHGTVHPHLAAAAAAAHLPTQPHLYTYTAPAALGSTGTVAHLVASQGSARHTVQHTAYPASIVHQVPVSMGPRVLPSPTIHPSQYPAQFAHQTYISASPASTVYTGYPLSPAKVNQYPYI

LIMK1 (human) = LIMK1 (human) (UniProt P53667)
MAPK10 (human) = MAPK10 (human) (UniProt P53779)
[3] = test system: MAPK14 (human), Q16539 [T106M]
MST1R (human) = MST1R (human) (UniProt Q04912)
MYLK3 (human) = MYLK3 (human) (UniProt Q32MK0)
NTRK2 (human) = NTRK2 (human) (UniProt Q16620)
Chain of NTRK2 (human) (Q16620 whole entry, looked up): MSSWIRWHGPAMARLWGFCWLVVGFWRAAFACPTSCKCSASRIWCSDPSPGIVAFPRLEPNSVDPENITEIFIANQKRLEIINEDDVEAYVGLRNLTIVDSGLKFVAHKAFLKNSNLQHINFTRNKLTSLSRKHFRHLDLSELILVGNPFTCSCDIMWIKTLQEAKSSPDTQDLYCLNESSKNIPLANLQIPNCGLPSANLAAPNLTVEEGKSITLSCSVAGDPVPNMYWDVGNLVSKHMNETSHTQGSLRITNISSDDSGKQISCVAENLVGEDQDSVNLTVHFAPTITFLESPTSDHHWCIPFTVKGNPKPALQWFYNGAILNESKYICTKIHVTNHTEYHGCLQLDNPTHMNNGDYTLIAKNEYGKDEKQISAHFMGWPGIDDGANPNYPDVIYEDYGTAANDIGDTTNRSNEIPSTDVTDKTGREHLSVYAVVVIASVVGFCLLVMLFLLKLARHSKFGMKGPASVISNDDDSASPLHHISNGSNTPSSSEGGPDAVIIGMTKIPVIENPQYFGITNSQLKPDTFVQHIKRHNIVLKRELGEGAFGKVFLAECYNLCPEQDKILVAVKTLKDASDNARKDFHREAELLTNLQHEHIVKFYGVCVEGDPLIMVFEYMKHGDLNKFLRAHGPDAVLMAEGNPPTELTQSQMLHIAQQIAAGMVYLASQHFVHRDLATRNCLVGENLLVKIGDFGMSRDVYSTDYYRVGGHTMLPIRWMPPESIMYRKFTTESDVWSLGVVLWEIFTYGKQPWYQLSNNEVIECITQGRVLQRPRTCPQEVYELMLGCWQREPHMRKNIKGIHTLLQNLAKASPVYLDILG

PAK3 (human) = PAK3 (human) (UniProt O75914)
PASK (human) = PASK (human) (UniProt Q96RG2)
[4] = test system: PDGFRA (human), P16234 [D842V]
PDPK1 (human) = PDPK1 (human) (UniProt O15530)
PIM3 (human) = PIM3 (human) (UniProt Q86V86)
PRKCD (human) = PRKCD (human) (UniProt Q05655)
PTK2B (human) = PTK2B (human) (UniProt Q14289)
RET (human) = RET (human) (UniProt P07949)
RPS6KA3 KD1 KD2 (human) = RPS6KA3 KD1 KD2 (human) (UniProt P51812)
RPS6KA4 KD1 KD2 (human) = RPS6KA4 KD1 KD2 (human) (UniProt O75676)
STK11 (human) = STK11 (human) (UniProt Q15831)
Chain of STK11 (human) (Q15831 whole entry, looked up): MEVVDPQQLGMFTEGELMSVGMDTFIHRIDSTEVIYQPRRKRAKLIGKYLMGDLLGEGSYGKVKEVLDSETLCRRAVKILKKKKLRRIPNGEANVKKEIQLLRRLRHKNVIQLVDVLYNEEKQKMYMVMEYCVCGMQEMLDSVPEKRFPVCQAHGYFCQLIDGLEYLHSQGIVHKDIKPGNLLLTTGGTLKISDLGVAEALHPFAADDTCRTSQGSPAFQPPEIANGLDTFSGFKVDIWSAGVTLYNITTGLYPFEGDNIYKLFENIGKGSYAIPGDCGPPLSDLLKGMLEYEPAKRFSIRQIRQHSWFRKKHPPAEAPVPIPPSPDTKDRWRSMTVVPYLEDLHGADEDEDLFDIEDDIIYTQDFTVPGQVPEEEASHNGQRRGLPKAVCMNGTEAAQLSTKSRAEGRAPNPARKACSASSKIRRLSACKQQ

WNK3 (human) = WNK3 (human) (UniProt Q9BYP7)

Chain of CAMK4 (human) (Q16566 whole entry, looked up): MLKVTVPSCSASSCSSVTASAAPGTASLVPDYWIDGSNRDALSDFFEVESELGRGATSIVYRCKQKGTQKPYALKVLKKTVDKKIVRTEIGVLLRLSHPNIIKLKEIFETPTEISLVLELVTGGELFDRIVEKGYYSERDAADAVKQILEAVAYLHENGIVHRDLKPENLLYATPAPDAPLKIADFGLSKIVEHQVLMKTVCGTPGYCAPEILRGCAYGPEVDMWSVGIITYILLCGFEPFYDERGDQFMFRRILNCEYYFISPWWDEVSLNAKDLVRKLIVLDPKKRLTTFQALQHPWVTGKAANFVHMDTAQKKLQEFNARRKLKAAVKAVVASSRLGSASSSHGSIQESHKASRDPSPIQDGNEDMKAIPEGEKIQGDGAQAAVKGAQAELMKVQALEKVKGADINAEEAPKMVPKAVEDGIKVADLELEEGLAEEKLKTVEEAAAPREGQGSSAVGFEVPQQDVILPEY

For `COc1ccc(C#Cc2ccc3ncc4ncn(-c5ccc(CCN)cc5)c4c3c2)cc1`, the residual activity (ABL2 (human); compound 10.0 µM) was 78%, the residual activity (AURKA (human); compound 10.0 µM) was 8% and the residual activity (AXL (human); compound 10.0 µM) was 3%. For the same molecule, the residual activity (CAMK2B (human); compound 10.0 µM) was 6%, the residual activity (CAMK2D (human); compound 10.0 µM) was 11% and the residual activity (CAMK4 (human); compound 10.0 µM) was 69%. The residual activity (CDK2 CCNE1 (human); compound 10.0 µM) was 99%, the residual activity (CDK5 CDK5R1 p35 (human); compound 10.0 µM) was 98% and the residual activity (CHEK2 (human); compound 10.0 µM) was 5%. It also gave a residual activity ([1]; compound 10.0 µM) of 6%, a residual activity (CSNK1D (human); compound 10.0 µM) of 35% and a residual activity (DAPK3 (human); compound 10.0 µM) of 34%. For the same molecule, the residual activity (EEF2K (human); compound 10.0 µM) was 93%, the residual activity ([2]; compound 10.0 µM) was 65% and the residual activity (EPHA3 (human); compound 10.0 µM) was 86%. For the same molecule, the residual activity (EPHB1 (human); compound 10.0 µM) was 110%, the residual activity (EPHB3 (human); compound 10.0 µM) was 113% and the residual activity (ERBB4 (human); compound 10.0 µM) was 116%. The residual activity (FGFR2 (human); compound 10.0 µM) was 65%, the residual activity (FYN (human); compound 10.0 µM) was 114% and the residual activity (GRK5 (human); compound 10.0 µM) was 114%. For the same molecule, the residual activity (GRK6 (human); compound 10.0 µM) was 108%, the residual activity (HIPK2 (human); compound 10.0 µM) was 63% and the residual activity (LIMK1 (human); compound 10.0 µM) was 38%. For the same molecule, the residual activity (MAPK10 (human); compound 10.0 µM) was 12%, the residual activity ([3]; compound 10.0 µM) was 79% and the residual activity (MST1R (human); compound 10.0 µM) was 106%. It also gave a residual activity (MYLK3 (human); compound 10.0 µM) of 29%, a residual activity (NTRK2 (human); compound 10.0 µM) of 23% and a residual activity (PAK3 (human); compound 10.0 µM) of 38%. It also gave a residual activity (PASK (human); compound 10.0 µM) of 4%, a residual activity ([4]; compound 10.0 µM) of 5% and a residual activity (PDPK1 (human); compound 10.0 µM) of 43%. It also gave a residual activity (PIM3 (human); compound 10.0 µM) of 22%, a residual activity (PRKCD (human); compound 10.0 µM) of 134% and a residual activity (PTK2B (human); compound 10.0 µM) of 47%. It also gave a residual activity (RET (human); compound 10.0 µM) of 9%, a residual activity (RPS6KA3 KD1 KD2 (human); compound 10.0 µM) of 24% and a residual activity (RPS6KA4 KD1 KD2 (human); compound 10.0 µM) of 8%. It also gave a residual activity (STK11 (human); compound 10.0 µM) of 104% and a residual activity (WNK3 (human); compound 10.0 µM) of 104%.

Molecule `O=C(NCCCNc1nc(Nc2cccc(NC(=O)N3CCCC3)c2)ncc1I)c1cccs1` has a residual activity (ABL2 (human); compound 1.0 µM) of 97%, a residual activity (AURKA (human); compound 1.0 µM) of 0% and a residual activity (AXL (human); compound 1.0 µM) of 93%. For the same molecule, the residual activity (CAMK2B (human); compound 1.0 µM) was 20%, the residual activity (CAMK2D (human); compound 1.0 µM) was 3% and the residual activity (CAMK4 (human); compound 1.0 µM) was 102%. It also gave a residual activity (CDK2 CCNE1 (human); compound 1.0 µM) of 107%, a residual activity (CDK5 CDK5R1 p35 (human); compound 1.0 µM) of 47% and a residual activity (CHEK2 (human); compound 1.0 µM) of 60%. For the same molecule, the residual activity ([1]; compound 1.0 µM) was 71%, the residual activity (CSNK1D (human); compound 1.0 µM) was 94% and the residual activity (DAPK3 (human); compound 1.0 µM) was 102%. It also gave a residual activity (EEF2K (human); compound 1.0 µM) of 106%, a residual activity ([2]; compound 1.0 µM) of 82% and a residual activity (EPHA3 (human); compound 1.0 µM) of 114%. It also gave a residual activity (EPHB1 (human); compound 1.0 µM) of 101%, a residual activity (EPHB3 (human); compound 1.0 µM) of 93% and a residual activity (ERBB4 (human); compound 1.0 µM) of 127%. For the same molecule, the residual activity (FGFR2 (human); compound 1.0 µM) was 86%, the residual activity (FYN (human); compound 1.0 µM) was 98% and the residual activity (GRK5 (human); compound 1.0 µM) was 109%. The residual activity (GRK6 (human); compound 1.0 µM) was 100%, the residual activity (HIPK2 (human); compound 1.0 µM) was 93% and the residual activity (LIMK1 (human); compound 1.0 µM) was 34%. The residual activity (MAPK10 (human); compound 1.0 µM) was 68%, the residual activity ([3]; compound 1.0 µM) was 95% and the residual activity (MST1R (human); compound 1.0 µM) was 105%. It also gave a residual activity (MYLK3 (human); compound 1.0 µM) of 107%, a residual activity (NTRK2 (human); compound 1.0 µM) of 42% and a residual activity (PAK3 (human); compound 1.0 µM) of 106%. It also gave a residual activity (PASK (human); compound 1.0 µM) of 103%, a residual activity ([4]; compound 1.0 µM) of -6% and a residual activity (PDPK1 (human); compound 1.0 µM) of 5%. It also gave a residual activity (PIM3 (human); compound 1.0 µM) of 116%, a residual activity (PRKCD (human); compound 1.0 µM) of 94% and a residual activity (PTK2B (human); compound 1.0 µM) of 85%. It also gave a residual activity (RET (human); compound 1.0 µM) of 30%, a residual activity (RPS6KA3 KD1 KD2 (human); compound 1.0 µM) of 118% and a residual activity (RPS6KA4 KD1 KD2 (human); compound 1.0 µM) of 59%. It also gave a residual activity (STK11 (human); compound 1.0 µM) of 108% and a residual activity (WNK3 (human); compound 1.0 µM) of 108%.
